# Test results reported in patent US20070123514A1, “Methods of modulating neurotrophin-mediated activity” (PainCeptor Pharma Corporation, priority 2005, published 2007).
# Assays:
# PC12 (TrkA & p75) = test: 125I-NGF binding displacement in PC12 cells; parameters: species or system rat; settings: PC12 cells expressing TrkA and p75; result in words
# Procedure: The method for acquiring the PC12 data described in Table 1 is described herein in Example 1. Each experiment was done at least once with an n value of 4 for each data point. (n/a=not acquired)
# All cells were incubated at 37° C. in 5% CO2. PC12 cells were maintained in RPMI-1640 medium supplemented with 10% fetal bovine serum (FBS). A875 human melanoma cells were maintained in DMEM with 10% FBS. HEK 293 cells were stably transfected with human TrkA plasmid (see below) and maintained in DMEM with 10% FBS and G418 (600 μg/mL) for selection.
# NGF binding was evaluated using methods familiar to those who are skilled in the art. Briefly, cells expressing one or both NGF receptors (PC12: TrkA+p75; A875: p75 alone; HEK_trkA: TrkA alone) were harvested by replacing the medium with calcium-magnesium free balanced salt (Grey's) solution and incubating at 37° C. for 15 min. For NGF binding, cells were resuspended at a concentration of 2×10^6 cells/mL in HEPES-Krebs-Ringer (HKR) buffer (10 mM HEPES; 125 mM NaCl; 4.8 mM KCl; 1.3 mM CaCl2; 1.2 mM MgSO4; 1.2 mM KH2PO4; 1 mg/ml BSA; 1 mg/ml glucose; pH 7.4) and exposed to ^125I-NGF (˜0.1 nM) in the presence or absence of varying concentrations of the compound. Non-specific binding was determined for reference by incubating ^125I-NGF with an excess of non-radioactive NGF in the abence of compound. Following a two-hour incubation period at 4° C., ^125I-NGF bound to the cells was quantified in a gamma radiation counter following separation from unbound NGF by filtration or centrifugation through glycerol (10% in HKR). Inhibition of binding was calculated as a percent of the specific binding (calculated as the differential between ^125I-NGF binding in the absence and presence of an excess of non-radioactive NGF without compound). Dose-response inhibition curves were typically generated with seven concentrations of a given compound, with three replicates for each concentration. For most compounds, multiple dose-response curves were generated.
# The IC50 data shown in Table 1 were acquired using the procedure described herein using PC12 cells.
# [1] = test system: NGF-induced Erk 1/2 phosphorylation in PC12 cells; test: Erk phosphorylation in NGF-stimulated PC12 cells (Western blot, ELISA); assay type: cell-based, rat; settings: 1 ng/mL NGF, result in words
# Procedure: This assay is useful for establishing that the compounds of the invention are functional NGF antagonists, not receptor agonists (an agonist could conceivably block NGF binding but actually activate the receptor). Erk 1/2 is a kinase activated down stream of TrkA and is a well studied member of the NGF-induced signal transduction cascade.
# PC12 cells expressing TrkA and p75 were acutely exposed to 1 ng/mL NGF (15 min; 37° C.; 5% CO2) that was pre-incubated (30 min; room temperature) with or without the compounds. Cells were lysed in Laemmli sample buffer (for SDS-PAGE) or a lysis buffer containing Triton X-100 (for ELISA). Following SDS-PAGE, proteins were electroblotted onto nitrocellulose and immunoprobed for phosphorylated Erk 1 and 2. Blocking and primary antibody incubations of immunoblots were performed in Tris-buffered saline-Tween (10 mM Tris, pH 8.0, 150 mM NaCl, and 0.2% Tween 20) supplemented with 5% (w/v) bovine serum albumin (BSA); secondary antibody incubations were performed in 5% (w/v) dried skim milk powder. Immunoreactive bands were detected by chemiluminescence.
# To detect phosphorylated Erk 1/2 by ELISA, a kit from R&D (Minneapolis, Minn.) Systems was used. […] The quantity of phosphoryated Erk 1/2 was quantified colorometrically with a standard HRP-streptavidin reaction.
structure (smiles),measurement,setting,value
"O=C(O)c1ccc(Cl)c(N2C(=O)c3cccc4cc([N+](=O)[O-])cc(c34)C2=O)c1 [Compound 5, 4-Chloro-3-(5-nitro-1,3-dioxo-1H,3H-benzo[de]isoquinolin-2-yl)-benzoic acid]",blocking of NGF binding (dose-response curve),PC12 (TrkA & p75),effectively block NGF binding
same,"NGF-induced Erk 1/2 phosphorylation, ELISA",[1],inhibits NGF-induced Erk 1/2 phosphorylation
same,"NGF-induced Erk 1/2 phosphorylation, Western blot",[1],inhibits NGF-induced Erk 1/2 phosphorylation
